# Results taken from patent publication US20200061026A1, “METHODS AND COMPOSITIONS FOR PREVENTING VECTOR-BORNE DISEASE TRANSMISSION” (The Scripps Research Institute, priority 2016, published 2020).
# Read-outs that look alike come from different tables or passages of the source.
# Experiments:
# [1] = Hepatocyte stability assay, rat; type: in vitro ADME; conditions: SD, hepatocytes
# Procedure: (§1) Example 7. In Vitro Metabolic Stability of Isoxazoline Compounds in cd-1 Mouse, sd Rat, Beagle Dog, Cynomolgus Monkey and Human Cryopreserved Hepatocytes
# (§2) Isoxazoline compounds (at 1 μM) were incubated with cryopreserved hepatocytes (0.5×10^6 cells per mL) in duplicates (n=2) at 37° C. using 96-well plate format.
# (§3) Time points were 0, 15, 30, 60 and 90 minutes in separate plates and medium control samples without cells at 0 and 90 minutes were also incubated. At each time point the reaction was stopped by adding organic solution containing internal standard (IS).
# (§4) Positive controls 7-ethoxycoumarin and 7-hydroxycoumarin were included in parallel.
# (§5) The samples were analyzed by LC-MS/MS. Disappearance of the test compound was assessed based on peak area ratios of analyte/IS (no standard curve).
# (§6) Intrinsic clearance and t½ values were then calculated.
# [2] = Plasma protein binding (equilibrium dialysis), mouse; type: in vitro ADME; conditions: 2 μM
# Procedure: (§7) Frozen plasma (EDTA-K2 as anticoagulant) pooled from multiple individuals of various species was used as a test matrix. The plasma was purchased from commercial vendors or prepared in house from animals. Warfarin was used as a positive control.
# (§8) Isoxazoline compounds were spiked into the blank matrix at the final concentration of 2 μM.
# (§9) A 150 μL aliquot of matrix sample was added to one side of the chamber in a 96-well equilibrium dialyzer plate (HTD dialysis) and an equal volume of dialysis buffer was added to the other side of the chamber. An aliquot of matrix sample was harvested before the incubation and used as T0 samples for recovery calculation. Triplicate incubations were performed.
# (§10) The dialyzer plate was placed in a humidified incubator and rotated slowly for 4 hours at 37° C. After incubation, samples were taken from the matrix side as well as the buffer side. The plasma sample was matched with equal volume of blank buffer; and buffer samples were matched with equal volume of blank plasma. The matrix-matched samples were quenched with a stop solution containing internal standard.
# (§11) The samples were analyzed by LC-MS/MS.
# (§12) Then, % bound fraction at 4 hours (% bound=1−% unbound) and % recovery in incubates at 4 hours were calculated.
# (§13) The stability of compounds in mouse (ms), rat (r), dog (d), cynomolgus monkey (cy), and human (hu) plasma is shown in Table 10 by the percentages of compounds remaining at two hours.
# [3] = Plasma protein binding (equilibrium dialysis), dog; type: in vitro ADME; conditions: 2 μM
# Procedure: as §7, §8, §9, §10, §11, §12, §13
# [4] = Bidirectional permeability in Caco-2 cells; type: in vitro ADME, human; conditions: for Papp B→A at 2 h, 2 μM / Papp A→B at 2 h, 2 μM: human, Caco-2, pH 7.4
# Procedure: The suitability of the compound for oral dosing was evaluated via a Caco-2 permeability assay to predict human intestinal permeability and to investigate drug efflux. Afoxolaner racemate was evaluated for P-glycoprotein (PGP) inhibition in a MDCK permeability assay.
# Caco-2 Cells (obtained from ATCC) were seeded onto PET membranes of 96-well Insert Plates for 21-28 days for confluent cell monolayer formation. The integrity of the monolayer was verified by performing Lucifer yellow rejection assay. The quality of the monolayer was also verified by measuring the unidirectional (A→B) permeability of fenoterol/nadolol (low permeability marker), propranolol/metoprolol (high permeability marker) and Bi-directional permeability of Digoxin (a P-glycoprotein substrate marker) in duplicate wells.
# Standard assay conditions are as follows: each test compound was tested at 2 μM (DMSO≤1%) with two replicates; bi-directional transport was evaluated (A→B and B→A); incubation was for 2 hours with a single time point; the transport buffer contained HBSS with 10 mM HEPES at pH7.40±0.05; and incubation occurred at 37±1° C., 5% CO2 and relatively saturated humidity. The dosing solution was spiked and mixed with transport buffer and Stop Solution (containing an appropriate internal standard (IS)) to provide the T0 sample. At the end of incubation, sample solutions from both donor and receiver wells were immediately mixed with Stop Solution. All samples, including T0 samples, donor samples, and receiver samples, were analyzed using LC/MS/MS. Concentrations of test compound are expressed as peak area ratio of analytes versus IS without a standard curve.
# [5] = Plasma protein binding (equilibrium dialysis), human; type: in vitro ADME; conditions: 2 μM
# Procedure: as §7, §8, §9, §10, §11, §12, §13
# Anopheles = Anopheles membrane feeding assay, EC90 at day 7; type: in vivo; conditions: 168 h
# Excerpt: Isoxazoline compounds fluralaner or afoxolaner were reconstituted in 50% human serum and 50% red blood cells and administered to adult Anopheles stephensi mosquitos via standard membrane feeding. […] FIG. 2A represents a plot of viable Anopheles stephensi versus fluralaner concentration at each day of assessment. FIG. 2B represents a plot of viable Anopheles stephensi versus afoxolaner concentration at each day of assessment. […] The IC50 values of each compound for Anopheles death were determined by logistic regression using a least squares method to find the best fit and are shown in Table 1. IC50 values were calculated by applying a four-parameter logistic regression model using a least-squares method to find the best fit using the Graphpad Prism 5.0 software package.
# CYP 2C9 = molecular target: T1, CYP 2C9 (Homo sapiens, UniProt P11712); assay: Reversible CYP inhibition in human liver microsomes, CYP 2C9; type: in vitro ADME; conditions: diclofenac, read-out: Cyp microsome IC50, 2C9
# T1 construct: individual CYPs in a pool of human liver microsomes; from tissue; host or cells: pooled human liver microsomes
# Procedure: Reversible inhibition of cytochrome P450s (CYPs) in human liver microsomes was tested using prototypical, isoform-selective activity assays for individual CYPs in a pool of human liver microsomes (i.e., testosterone for CYP 3A4, phenacetin for CYP 1A2, bufuralol for CYP 2D6, S-mephenytoin for CYP 2C19, and diclofenac for CYP 2C9). The assay provides 8-point IC50 determinations in the range of 0.010 to 50 μM drug concentrations for major isoforms of CYP450.
# [6] = system: various Anopheles and Aedes mosquitos; assay: Membrane feeding, all Anopheles and Aedes strains tested; type: in vivo; conditions: read-out: IC50 values, range against all strains tested
# Procedure: Isoxazoline compounds fluralaner or afoxolaner were reconstituted in 50% human serum and 50% red blood cells and administered to adult Anopheles stephensi mosquitos via standard membrane feeding. Lethality was assessed 1, 2 or 8 days after exposure. FIG. 2A represents a plot of viable Anopheles stephensi versus fluralaner concentration at each day of assessment. FIG. 2B represents a plot of viable Anopheles stephensi versus afoxolaner concentration at each day of assessment. […] The IC50 values of each compound for Anopheles death were determined by logistic regression using a least squares method to find the best fit and are shown in Table 1. IC50 values were calculated by applying a four-parameter logistic regression model using a least-squares method to find the best fit using the Graphpad Prism 5.0 software package.
# [7] = Hepatocyte stability assay, human; type: in vitro ADME; conditions: hepatocytes
# Procedure: as §1, §2, §3, §4, §5, §6
# [8] = Plasma protein binding (equilibrium dialysis), rat; type: in vitro ADME; conditions: 2 μM
# Procedure: as §7, §8, §9, §10, §11, §12, §13
# [9] = rat (r), 1 μM, read-out: Hepatocyte stability (t½)
# [10] = B→A, 2 μM, 2 hours, read-out: Caco2 B-A
# [11] = human (hu), 1 μM, read-out: Hepatocyte stability (t½)
# T1 sequence (P11712 whole entry): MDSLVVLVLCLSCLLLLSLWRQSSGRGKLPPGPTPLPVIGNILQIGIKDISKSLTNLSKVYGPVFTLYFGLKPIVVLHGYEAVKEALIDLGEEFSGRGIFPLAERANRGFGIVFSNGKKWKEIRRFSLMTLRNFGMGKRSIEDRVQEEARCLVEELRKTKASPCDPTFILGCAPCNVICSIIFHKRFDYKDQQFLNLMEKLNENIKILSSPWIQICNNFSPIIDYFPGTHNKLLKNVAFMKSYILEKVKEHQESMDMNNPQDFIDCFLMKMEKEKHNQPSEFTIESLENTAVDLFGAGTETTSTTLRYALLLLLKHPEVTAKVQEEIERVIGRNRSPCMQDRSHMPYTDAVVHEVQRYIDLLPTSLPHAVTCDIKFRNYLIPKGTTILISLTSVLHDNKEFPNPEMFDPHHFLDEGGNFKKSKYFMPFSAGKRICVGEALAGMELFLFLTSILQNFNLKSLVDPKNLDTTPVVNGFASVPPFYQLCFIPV
SMILES,"half-life at 1 μM [1, 9]","Plasma protein % binding ([2]; mouse (ms), 4 hours)","Plasma protein % binding ([3]; dog (d), 4 hours)","Papp B→A at 2 h, 2 μM [4, 10]","Plasma protein % binding ([5]; human (hu), 4 hours)",EC90 (Anopheles),IC50 (CYP 2C9),"half-life at 1 μM [7, 11]","Plasma protein % binding ([8]; rat (r), 4 hours)",other results
"O=C(CNC(=O)c1ccc(C2=NO[C@](c3cc(Cl)cc(C(F)(F)F)c3)(C(F)(F)F)C2)c2ccccc12)NCC(F)(F)F (racemic) [Afoxolaner, afoxolaner]",> 3.62 h,"97.8 (ms), %",">99.9 (d, hu) %",0.24 ×10⁻⁶ cm/s,">99.9 (d, hu) %",8.1 nM,2900 nM,> 3.62 h,"97.3 (r), %","Caco2 A-B ([4]; A→B, 2 μM, 2 hours): <0.0003/ 10^−6 cm/sec; IC50 [6]: 90 to 107 nM"
O=C(CNC(=O)c1ccc(C2=NO[C@@](c3cc(Cl)cc(C(F)(F)F)c3)(C(F)(F)F)C2)c2ccccc12)NCC(F)(F)F [(S)-afoxolaner],1 h,">99.9 (ms, r, hu), %",99.5 (d) %,0.7 ×10⁻⁶ cm/s,">99.9 (ms, r, hu), %",8 nM,4200 nM,1.1 h,">99.9 (ms, r, hu), %","Papp A→B at 2 h, 2 μM ([4]; A→B, 2 μM, 2 hours, read-out: Caco2 A-B): < 0.2 ×10⁻⁶ cm/s"
"O=C(CNC(=O)c1ccc(C2=NO[C@@](c3cc(Cl)cc(Cl)c3)(C(F)(F)F)C2)c2ccccc12)NCC(F)(F)F [(S)-4-(5-(3,5-dichlorophenyl)-5-(trifluoromethyl)-4,5-dihydroisoxazol-3-yl)-N-(2-oxo-2-((2,2,2-trifluoroethyl)amino)ethyl)-1-naphthamide]",,,,,,,1900 nM,,,"half-life at 1 μM ([1]; rat): 1.28 h; Plasma protein % binding ([2]; mouse, 4 h): >99.9% (ms, r, d, hu); Plasma protein % binding ([3]; dog, 4 h): >99.9% (ms, r, d, hu); Papp A→B at 2 h, 2 μM [4]: < 0.29 ×10⁻⁶ cm/s; Papp B→A at 2 h, 2 μM [4]: 0.56 ×10⁻⁶ cm/s; Plasma protein % binding ([5]; human, 4 h): >99.9% (ms, r, d, hu); EC90 (Anopheles; day 7, read-out: EC90): 8 nM; half-life at 1 μM ([7]; human): 1.05 h; Plasma protein % binding ([8]; rat, 4 h): >99.9% (ms, r, d, hu)"
"Cc1cc(C2=NO[C@](c3cc(Cl)cc(Cl)c3)(C(F)(F)F)C2)ccc1C(=O)NCC(=O)NCC(F)(F)F [Fluralaner, fluralaner]",,,,,,,,,,IC50 ([6]; twenty-four hours after the blood meal): 33 to 56 nM
